pEC50: −log10 of the molar value.

T1 sequence (O75460 19-977): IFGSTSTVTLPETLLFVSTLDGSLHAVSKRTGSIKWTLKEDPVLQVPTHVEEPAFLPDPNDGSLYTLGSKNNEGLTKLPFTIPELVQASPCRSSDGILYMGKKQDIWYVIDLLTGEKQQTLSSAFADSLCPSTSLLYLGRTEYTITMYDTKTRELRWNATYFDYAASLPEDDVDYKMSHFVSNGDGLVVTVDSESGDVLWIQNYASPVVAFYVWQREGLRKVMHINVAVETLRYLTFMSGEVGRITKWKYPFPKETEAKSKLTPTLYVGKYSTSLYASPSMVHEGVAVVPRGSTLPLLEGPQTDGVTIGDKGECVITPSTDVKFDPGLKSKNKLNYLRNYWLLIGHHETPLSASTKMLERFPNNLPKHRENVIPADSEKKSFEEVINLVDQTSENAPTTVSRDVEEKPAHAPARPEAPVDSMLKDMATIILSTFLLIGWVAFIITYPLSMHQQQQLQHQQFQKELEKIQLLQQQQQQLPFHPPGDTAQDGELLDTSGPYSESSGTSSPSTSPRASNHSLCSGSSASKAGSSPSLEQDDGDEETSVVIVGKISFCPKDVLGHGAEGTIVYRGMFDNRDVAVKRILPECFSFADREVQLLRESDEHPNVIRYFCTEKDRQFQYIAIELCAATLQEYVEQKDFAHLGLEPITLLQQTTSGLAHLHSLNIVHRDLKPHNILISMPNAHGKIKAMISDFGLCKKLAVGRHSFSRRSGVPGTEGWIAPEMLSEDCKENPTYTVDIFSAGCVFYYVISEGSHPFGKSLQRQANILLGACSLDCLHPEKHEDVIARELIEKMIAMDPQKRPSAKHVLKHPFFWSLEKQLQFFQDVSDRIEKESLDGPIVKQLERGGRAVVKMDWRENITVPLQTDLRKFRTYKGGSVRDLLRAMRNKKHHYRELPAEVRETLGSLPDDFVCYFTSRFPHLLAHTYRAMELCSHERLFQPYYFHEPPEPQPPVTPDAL

The first test addresses T1, IRE1α (Homo sapiens, UniProt O75460).
T1 construct: purchased SignalChem
Kind of test: In vitro FRET assay (XBP1 RNA probe cleavage by IRE1α). To be noted: biochemical FRET assay, 2 nM IRE1α. The procedure:
In vitro FRET assay was performed to evaluate the ability of select compounds to inhibit IRE1, the results of which are summarized in the following table.
To perform the in vitro FRET assay, 1× complete assay buffer (CAB; […], 50 mM sodium citrate pH 7.15, 1 mM magnesium acetate, 0.02% Tween 20) was used to dilute SignalChem IRE1α in protein to a final concentration of 2 nM. Selected compounds were serially diluted with DMSO in a non-binding black 384-well plate for a total of 15 μl in each well. 2 μl of the serially diluted compound or DMSO control were then added to new wells containing 98 μl of 1×CAB, for a total volume of 100 μl, 10 μl of which were then transferred to wells of a new plate. 5 μl of the diluted IRE1α was then added to each well. 5 μl of a […] XBP1 RNA probe was then added to each well. Fluorescence was then read over 30 minutes in kinetic mode (485/515 nm). Two RNA probes were used, XBP1 wildtype (CAUGUCCGCAGCACAUG; SEQ ID NO: 1) which is able to be spliced by active IRE1α or XBP1 mutant (CAUGUCCCCAGCACAUG; SEQ ID NO: 2) which is unable to be spliced. Each probe contained a 5′ 6-FAM modification and a 3′ IOWA Black FQ modification. […]
What is called pEC50 is the EC50 on a negative log10 scale, so that one unit is a factor of ten. Lower therefore signals a large EC50. `Cn1nc(NC(=O)Nc2ccc(CN3CCCCCC3)c(C(F)(F)F)c2)cc1-c1ccc2ccncc2c1` [Compound 38, 1-(4-(azepan-1-ylmethyl)-3-(trifluoromethyl)phenyl)-3-(5-(isoquinolin-7-yl)-1-methyl-1H-pyrazol-3-yl)urea] had a pEC50 of less than 4.00.

`CN1CCN(Cc2ccc(NC(=O)Nc3cc(-c4ccc(-c5cccn6ccnc56)cc4)n(C)n3)cc2C(F)(F)F)CC1` [Compound 54, 1-(5-(4-(imidazo[1,2-a]pyridin-8-yl)phenyl)-1-methyl-1H-pyrazol-3-yl)-3-(4-((4-methylpiperazin-1-yl)methyl)-3-(trifluoromethyl)phenyl)urea] showed a pEC50 not below 5.30.

Compound `CN1CCN(Cc2ccc(NC(=O)Nc3nn(C)c4cc(-c5cccnc5)ccc34)cc2C(F)(F)F)CC1` [Compound 1, 1-(1-methyl-6-(pyridin-3-yl)-1H-indazol-3-yl)-3-(4-((4-methylpiperazin-1-yl)methyl)-3-(trifluoromethyl)phenyl)urea] showed a pEC50 not below 5.30. On the same count and under the same terms, with `O=C(Nc1ccccc1)Nc1ccc2oc(-c3cccnc3)nc2c1` [Compound 56, 1-phenyl-3-(2-(pyridin-3-yl)benzo[d]oxazol-5-yl)urea] the figure was less than 4.00. `Cn1nc(NS(=O)(=O)c2cccc(C(F)(F)F)c2)cc1-c1ccc2ccncc2c1` [Compound 72, N-(5-(isoquinolin-7-yl)-1-methyl-1H-pyrazol-3-yl)-3-(trifluoromethyl)benzene-sulfonamide] gave a pEC50 of 4.00 to 4.30. `CN1CCN(Cc2ccc(NC(=O)Nc3cc(-c4ccc(-c5ccc(N)nc5)cc4)[nH]n3)cc2C(F)(F)F)CC1` [Compound 55, 1-(5-(4-(6-aminopyridin-3-yl)phenyl)-1H-pyrazol-3-yl)-3-(4-((4-methylpiperazin-1-yl)methyl)-3-(trifluoromethyl)phenyl)urea] showed a pEC50 of 4.30 to 5.30. `CN1CCC(=Cc2ccc(NC(=O)Nc3cc(-c4ccc5cc(N)ncc5c4)n(C)n3)cc2C(F)(F)F)CC1` [Compound 71, 1-(5-(3-aminoisoquinolin-7-yl)-1-methyl-1H-pyrazol-3-yl)-3-(4-((1-methylpiperidin-4-ylidene)methyl)-3-(trifluoromethyl)phenyl)urea] gave a pEC50 of 4.30 to 5.30. The same measure, in the same setting: with `Cn1nc(NC(=O)Nc2ccccc2F)cc1-c1ccc2ccncc2c1` [Compound 69, 1-(2-fluorophenyl)-3-(5-(isoquinolin-7-yl)-1-methyl-1H-pyrazol-3-yl)urea] the figure was less than 4.00; with `CC(C)N1CCN(Cc2ccc(NC(=O)Nc3cc(-c4ccc5ccncc5c4)n(C)n3)cc2C(F)(F)F)CC1` [Compound 37, 1-(4-((4-isopropylpiperazin-1-yl)methyl)-3-(trifluoromethyl)phenyl)-3-(5-(isoquinolin-7-yl)-1-methyl-1H pyrazol-3-yl)urea], not below 5.30; with `CN1CCN(Cc2ccc(NC(=O)Nc3cc(-c4ccc(-c5cccc6nccnc56)cc4)n(C)n3)cc2C(F)(F)F)CC1` [Compound 53], less than 4.00. For the compound `CN1CCN(Cc2ccc(NC(=O)Nc3cc(-c4ccc5nc(N)nc(N)c5c4)n(C)n3)cc2C(F)(F)F)CC1` [Compound 29, 1-(5-(2,4-diaminoquinazolin-6-yl)-1-methyl-1H-pyrazol-3-yl)-3-(4-((4-methylpiperazin-1-yl)methyl)-3-(trifluoromethyl)phenyl)urea], the pEC50 was not below 5.30. Compound `Cn1nc(NC(=O)Nc2ccc(CN3CCC(O)CC3)c(C(F)(F)F)c2)cc1-c1ccc2ccncc2c1` [Compound 41, 1-(4-((4-hydroxypiperidin-1-yl)methyl)-3-(trifluoromethyl)phenyl)-3-(5-(isoquinolin-7-yl)-1-methyl-1H-pyrazol-3-yl)urea] had a pEC50 of less than 4.00. The compound `CN1CCN(Cc2ccc(NC(=O)Nc3nn(C)c4cc(-c5cnc(N)nc5)ccc34)cc2C(F)(F)F)CC1` [Compound 9, 1-(6-(2-aminopyrimidin-5-yl)-1-methyl-1H-indazol-3-yl)-3-(4-((4-methylpiperazin-1-yl)methyl)-3-(trifluoromethyl)phenyl)urea] had a pEC50 not below 5.30.

The compound `CN1CCN(Cc2ccc(NC(=O)Nc3nn(C)c4cc(-c5cnc(N)cn5)ccc34)cc2C(F)(F)F)CC1` [Compound 10, 1-(6-(5-aminopyrazin-2-yl)-1-methyl-1H-indazol-3-yl)-3-(4-((4-methylpiperazin-1-yl)methyl)-3-(trifluoromethyl)phenyl)urea] showed a pEC50 of 4.30 to 5.30. With `CN1COc2cc(NC(=O)Nc3cc(-c4ccc5ccncc5c4)n(C)n3)ccc2C1` [Compound 62, 1-(5-(isoquinolin-7-yl)-1-methyl-1H-pyrazol-3-yl)-3-(3-methyl-3,4-dihydro-2H-benzo[e][1,3]oxazin-7-yl)urea], the pEC50 is less than 4.00.

In the case of `O=C(C#Cc1ccccc1)Nc1ccc2oc(-c3cccnc3)nc2c1` [Compound 58, 3-phenyl-N-(2-(pyridin-3-yl)benzo[d]oxazol-5-yl)propiolamide], the pEC50 is less than 4.00. The compound `CN1CCN(Cc2ccc(NC(=O)Nc3cc(-c4cnc5ccccc5c4)n(C)n3)cc2C(F)(F)F)CC1` [Compound 25, 1-(1-methyl-5-(quinolin-3-yl)-1H-pyrazol-3-yl)-3-(4-((4-methylpiperazin-1-yl)methyl)-3-(trifluoromethyl)phenyl)urea] had a pEC50 of 4.30 to 5.30.

Compound `CN1CCN(Cc2ccc(NC(=O)Nc3cc(-c4cccc5nccnc45)n(C)n3)cc2C(F)(F)F)CC1` [Compound 6] showed a pEC50 of less than 4.00.

Consider `CN1CCN(Cc2ccc(NC(=O)Nc3ccc4oc(-c5cccnc5)nc4c3)cc2C(F)(F)F)CC1` [Compound 15, 1-(4-((4-methylpiperazin-1-yl)methyl)-3-(trifluoromethyl)phenyl)-3-(2-(pyridin-3-yl)benzo[d]oxazol-5-yl)urea], for which the pEC50 is less than 4.00. In the case of `CN1CCN(Cc2ccc(NC(=O)Nc3cc(-c4ccc5ccc(O)nc5c4)n(C)n3)cc2C(F)(F)F)CC1` [Compound 23, 1-(5-(2-hydroxyquinolin-7-yl)-1-methyl-1H-pyrazol-3-y1)-3-(4-((4-methylpiperazin-1-yl)methyl)-3-(trifluoromethyl)phenyl)urea], the pEC50 is 4.30 to 5.30. On the same count and under the same terms, with `Cn1nc(NC(=O)c2ccccc2)cc1-c1ccc2cc(N)ncc2c1` [Compound 67, N-(5-(3-aminoisoquinolin-7-yl)-1-methyl-1H-pyrazol-3-yl)benzamide] the figure was less than 4.00; with `CN1CCN(Cc2ccc(NC(=O)Cc3cc(-c4ccc5nc(N)ncc5c4)n(C)n3)cc2C(F)(F)F)CC1` [Compound 33, 2-(5-(2-aminoquinazolin-6-yl)-1-methyl-1H-pyrazol-3-yl)-N-(4-((4-methylpiperazin-1-yl)methyl)-3-(trifluoromethyl)phenyl)acetamide], 4.30 to 5.30.

Another test deals with myeloid dendritic cells. Nature of the test: Lipid accumulation in dendritic cells exposed to ovarian cancer ascites supernatants (BODIPY 493/503 staining, flow cytometry). In kind it is cell-based, mouse.
Settings: not given
(A flow cytometer gives signals particle by particle.)
As to vitamin E, the “pathological intracellular lipid accumulation” value is recorded as “suppressed”.

The target of another test is IRE1α kinase and endoribonuclease domains (Homo sapiens, UniProt O75460).
Sequence of IRE1α kinase and endoribonuclease domains (O75460 19-977): as above
Test: not given
The conditions noted are these: cited from earlier work.
As to `CC(C)n1nc(-c2ccc(NC(=O)Nc3cccc(C(F)(F)F)c3)cc2)c2c(N)ncnc21` [SRC inhibitor, 1-(4-(4-Amino-1-isopropyl-1H-pyrazolo[3,4-d]pyrimidin-3-yl)phenyl)-3-(3-(trifluoromethyl)phenyl)urea], the “inhibition of IRE1α kinase and endoribonuclease domains” value is reported as “inhibits”.

These data come from patent publication US10125123B2, “Small molecule IRE1-α inhibitors” (Cornell University, priority 2016, dated 2018).
